Assays:
Aurora-B = Aurora-B (Homo sapiens, UniProt Q96GD4); assay: 33PanQinase protein kinase activity assay; format: biochemical; details: recombinant kinase, 1 µM ATP
CDK2/CycA = CDK2/CycA (Homo sapiens, UniProt P24941); assay: 33PanQinase protein kinase activity assay; format: biochemical; details: recombinant kinase, 1 µM ATP
CDK4/CycD1 = CDK4/CycD1 (Homo sapiens, UniProt P11802); assay: 33PanQinase protein kinase activity assay; format: biochemical; details: recombinant kinase, 1 µM ATP
B-RAF-VE = B-RAF-VE (Homo sapiens, UniProt P15056, V600E); assay: 33PanQinase protein kinase activity assay; format: biochemical; details: recombinant kinase, 1 µM ATP
Description: (§1) Recombinant protein kinases.

CK2a1 = CK2a1 (Homo sapiens, UniProt P68400); assay: 33PanQinase protein kinase activity assay; format: biochemical; details: recombinant kinase, 1 µM ATP
Description: as §1

COT = COT (Homo sapiens, UniProt P41279); assay: 33PanQinase protein kinase activity assay; format: biochemical; details: recombinant kinase, 1 µM ATP
Description: as §1

ERBB2 = ERBB2 (Homo sapiens, UniProt P04626); assay: 33PanQinase protein kinase activity assay; format: biochemical; details: recombinant kinase, 1 µM ATP
Description: as §1

FLT3 = FLT3 (Homo sapiens, UniProt P36888); assay: 33PanQinase protein kinase activity assay; format: biochemical; details: recombinant kinase, 1 µM ATP
Description: as §1

MET = MET (Homo sapiens, UniProt P08581); assay: 33PanQinase protein kinase activity assay; format: biochemical; details: recombinant kinase, 1 µM ATP
Description: as §1

PLK1 = PLK1 (Homo sapiens, UniProt P53350); assay: 33PanQinase protein kinase activity assay; format: biochemical; details: recombinant kinase, 1 µM ATP
Description: as §1

SAK = SAK (Homo sapiens, UniProt O00444); assay: 33PanQinase protein kinase activity assay; format: biochemical; details: recombinant kinase, 1 µM ATP
Description: as §1

VEGF-R3 = VEGF-R3 (Homo sapiens, UniProt P35916); assay: 33PanQinase protein kinase activity assay; format: biochemical; details: recombinant kinase, 1 µM ATP
Description: as §1

AKT1 = AKT1 (Homo sapiens, UniProt P31749); assay: 33PanQinase protein kinase activity assay; format: biochemical; details: recombinant kinase, 1 µM ATP
ARK5 = ARK5 (Homo sapiens, UniProt O60285); assay: 33PanQinase protein kinase activity assay; format: biochemical; details: recombinant kinase, 1 µM ATP
Aurora-A = Aurora-A (Homo sapiens, UniProt O14965); assay: 33PanQinase protein kinase activity assay; format: biochemical; details: recombinant kinase, 1 µM ATP
EPHB4 = EPHB4 (Homo sapiens, UniProt P54760); assay: 33PanQinase protein kinase activity assay; format: biochemical; details: recombinant kinase, 1 µM ATP
FAK = FAK (Homo sapiens, UniProt Q05397); assay: 33PanQinase protein kinase activity assay; format: biochemical; details: recombinant kinase, 1 µM ATP
IGF1R = IGF1R (Homo sapiens, UniProt P08069); assay: 33PanQinase protein kinase activity assay; format: biochemical; details: recombinant kinase, 1 µM ATP
SRC = SRC (Homo sapiens, UniProt P12931); assay: 33PanQinase protein kinase activity assay; format: biochemical; details: recombinant kinase, 1 µM ATP
VEGF-R2 = VEGF-R2 (Homo sapiens, UniProt P35968); assay: 33PanQinase protein kinase activity assay; format: biochemical; details: recombinant kinase, 1 µM ATP
Description: as §1

INSR = INSR (Homo sapiens, UniProt P06213); assay: 33PanQinase protein kinase activity assay; format: biochemical; details: recombinant kinase, 1 µM ATP
PDGFRβ = PDGFRβ (Homo sapiens, UniProt P09619); assay: 33PanQinase protein kinase activity assay; format: biochemical; details: recombinant kinase, 1 µM ATP
TIE2 = TIE2 (Homo sapiens, UniProt Q02763); assay: 33PanQinase protein kinase activity assay; format: biochemical; details: recombinant kinase, 1 µM ATP
[1] = system: TK 10, 786-0, M 14, and MCF-7 cell lines; assay: Cell viability assay (CellTiter-Glo), other cell lines; format: cell-based; details: TK 10, 786-0, M 14, MCF-7; 48 h; compared with HL-60
Method: In order to determine the cytotoxic profiles of compounds 5 and 8, they were evaluated in cell viability assays (Figure 7) including HL-60, a human myeloblastic leukemia cell line, as it has been shown that the proliferation and differentiation of these cells depend upon PDGFR-signalling. Cells were treated with compounds 5 and 8 and after 48 h incubation, their viability was determined. […] This is in line with the notion that HL-60 cells depend on PDGFR-signaling.
The cells were grown in RPMI 1640 Glutamax with 10% FCS, 100 µg/mL streptomycin and 100 U/mL Penicillin G and incubated in a 5% CO2 humidified atmosphere at 37 °C. For proliferation experiments, cells were seeded in 20 µL pro well into 384-well Greiner 384 CellStar® plates (Greiner Bio-One I. AG, Kremsmünster, AT). In addition to the test plates, one plate was prepared for the reference measurement at day zero. All plates were incubated for 24 h at 37 °C in a humidified atmosphere with 5% CO2. […] The viability of the cells in the day zero control plates were determined on the same day without adding any compounds. […] The luminescence signal was measured at the EnSpire® Multimode Plate Reader (PerkinElmer, Waltham, MA, USA). […] Measured raw data were converted into percent of cell growth by using the high control (0.5% DMSO v/v without compound) and the day zero control. […]

EGFR = EGFR (Homo sapiens, UniProt P00533); assay: biochemical
HL-60 cells = assay: Cell viability assay (CellTiter-Glo); format: cell-based; details: Homo sapiens, 48 h incubation
[2] = system: bacterial methicillin-resistant Staphylococcus (MRSA-PK); parameters: method as in PMID 22030393; details: cited from earlier work

VEGF-R3, sequence (P35916 25-1363): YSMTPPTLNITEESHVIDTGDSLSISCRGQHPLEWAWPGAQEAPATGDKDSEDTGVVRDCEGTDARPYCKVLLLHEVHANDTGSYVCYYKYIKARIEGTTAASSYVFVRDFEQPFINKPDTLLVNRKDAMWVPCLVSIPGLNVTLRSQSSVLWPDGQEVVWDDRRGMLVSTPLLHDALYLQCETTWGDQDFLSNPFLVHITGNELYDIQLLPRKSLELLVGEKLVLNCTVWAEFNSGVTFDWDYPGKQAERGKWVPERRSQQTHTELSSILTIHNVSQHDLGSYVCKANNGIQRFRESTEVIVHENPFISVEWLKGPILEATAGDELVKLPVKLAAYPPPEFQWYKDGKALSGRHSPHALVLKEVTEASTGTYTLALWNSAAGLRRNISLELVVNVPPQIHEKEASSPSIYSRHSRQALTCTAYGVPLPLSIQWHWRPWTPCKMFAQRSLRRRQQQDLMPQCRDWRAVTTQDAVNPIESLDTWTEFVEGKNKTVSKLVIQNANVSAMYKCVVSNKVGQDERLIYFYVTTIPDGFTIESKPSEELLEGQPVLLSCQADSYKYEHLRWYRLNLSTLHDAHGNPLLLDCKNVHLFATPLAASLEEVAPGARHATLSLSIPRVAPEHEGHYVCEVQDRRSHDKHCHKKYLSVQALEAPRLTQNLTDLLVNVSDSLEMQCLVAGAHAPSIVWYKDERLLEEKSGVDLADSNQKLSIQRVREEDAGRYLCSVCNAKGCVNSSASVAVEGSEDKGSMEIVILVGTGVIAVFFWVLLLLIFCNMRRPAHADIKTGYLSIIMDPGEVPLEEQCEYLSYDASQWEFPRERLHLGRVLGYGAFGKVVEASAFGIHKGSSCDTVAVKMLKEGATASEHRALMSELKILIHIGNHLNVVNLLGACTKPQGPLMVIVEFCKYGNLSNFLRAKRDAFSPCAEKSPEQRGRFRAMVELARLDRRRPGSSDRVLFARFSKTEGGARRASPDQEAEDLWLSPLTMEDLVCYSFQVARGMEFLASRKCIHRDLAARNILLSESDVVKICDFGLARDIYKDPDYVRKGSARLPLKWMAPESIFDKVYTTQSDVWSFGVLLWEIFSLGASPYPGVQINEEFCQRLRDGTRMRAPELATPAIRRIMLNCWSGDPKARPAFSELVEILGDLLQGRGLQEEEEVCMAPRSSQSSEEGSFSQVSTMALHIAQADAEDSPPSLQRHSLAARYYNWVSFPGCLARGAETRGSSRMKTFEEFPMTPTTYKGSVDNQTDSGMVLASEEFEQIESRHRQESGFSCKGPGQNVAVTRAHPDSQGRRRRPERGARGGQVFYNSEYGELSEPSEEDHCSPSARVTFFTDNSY
PDGFRβ, sequence (P09619 33-1106): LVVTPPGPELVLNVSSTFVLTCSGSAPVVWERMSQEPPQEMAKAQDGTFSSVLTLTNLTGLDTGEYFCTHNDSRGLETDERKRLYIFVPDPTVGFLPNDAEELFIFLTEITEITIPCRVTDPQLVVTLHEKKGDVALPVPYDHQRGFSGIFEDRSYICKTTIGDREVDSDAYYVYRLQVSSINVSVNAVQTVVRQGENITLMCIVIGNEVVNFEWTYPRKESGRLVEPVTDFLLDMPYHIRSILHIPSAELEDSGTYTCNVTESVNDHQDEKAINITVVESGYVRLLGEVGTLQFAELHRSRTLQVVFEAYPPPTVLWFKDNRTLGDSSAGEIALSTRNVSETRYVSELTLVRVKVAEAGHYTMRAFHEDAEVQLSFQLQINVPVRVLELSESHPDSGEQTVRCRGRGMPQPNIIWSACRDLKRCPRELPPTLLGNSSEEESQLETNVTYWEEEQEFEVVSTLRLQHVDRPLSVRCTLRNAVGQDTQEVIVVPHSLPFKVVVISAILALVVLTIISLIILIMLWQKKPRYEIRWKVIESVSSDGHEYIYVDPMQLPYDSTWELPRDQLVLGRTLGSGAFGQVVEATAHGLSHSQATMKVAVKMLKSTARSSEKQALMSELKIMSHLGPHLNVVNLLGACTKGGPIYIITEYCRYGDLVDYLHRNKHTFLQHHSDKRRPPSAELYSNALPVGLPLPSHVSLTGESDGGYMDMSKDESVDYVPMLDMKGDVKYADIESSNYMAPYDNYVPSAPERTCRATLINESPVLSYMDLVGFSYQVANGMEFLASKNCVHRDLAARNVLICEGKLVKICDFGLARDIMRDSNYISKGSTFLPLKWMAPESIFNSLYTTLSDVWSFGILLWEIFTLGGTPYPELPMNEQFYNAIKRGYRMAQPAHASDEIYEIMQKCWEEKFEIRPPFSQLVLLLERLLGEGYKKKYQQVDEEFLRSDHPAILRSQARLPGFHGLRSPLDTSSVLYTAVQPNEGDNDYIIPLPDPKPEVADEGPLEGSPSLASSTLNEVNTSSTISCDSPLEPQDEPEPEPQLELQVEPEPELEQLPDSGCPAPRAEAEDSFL
CK2a1, sequence (P68400 whole entry): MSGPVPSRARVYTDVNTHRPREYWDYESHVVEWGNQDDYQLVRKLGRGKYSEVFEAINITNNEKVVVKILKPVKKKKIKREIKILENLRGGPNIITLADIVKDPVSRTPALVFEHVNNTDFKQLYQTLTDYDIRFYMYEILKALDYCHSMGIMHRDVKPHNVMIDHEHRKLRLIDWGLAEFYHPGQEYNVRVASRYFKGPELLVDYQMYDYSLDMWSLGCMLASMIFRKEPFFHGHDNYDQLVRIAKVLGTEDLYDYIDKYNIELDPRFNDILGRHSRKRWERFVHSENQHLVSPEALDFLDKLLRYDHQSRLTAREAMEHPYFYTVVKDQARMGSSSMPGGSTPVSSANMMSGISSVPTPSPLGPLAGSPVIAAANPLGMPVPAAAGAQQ
FLT3, sequence (P36888 27-993): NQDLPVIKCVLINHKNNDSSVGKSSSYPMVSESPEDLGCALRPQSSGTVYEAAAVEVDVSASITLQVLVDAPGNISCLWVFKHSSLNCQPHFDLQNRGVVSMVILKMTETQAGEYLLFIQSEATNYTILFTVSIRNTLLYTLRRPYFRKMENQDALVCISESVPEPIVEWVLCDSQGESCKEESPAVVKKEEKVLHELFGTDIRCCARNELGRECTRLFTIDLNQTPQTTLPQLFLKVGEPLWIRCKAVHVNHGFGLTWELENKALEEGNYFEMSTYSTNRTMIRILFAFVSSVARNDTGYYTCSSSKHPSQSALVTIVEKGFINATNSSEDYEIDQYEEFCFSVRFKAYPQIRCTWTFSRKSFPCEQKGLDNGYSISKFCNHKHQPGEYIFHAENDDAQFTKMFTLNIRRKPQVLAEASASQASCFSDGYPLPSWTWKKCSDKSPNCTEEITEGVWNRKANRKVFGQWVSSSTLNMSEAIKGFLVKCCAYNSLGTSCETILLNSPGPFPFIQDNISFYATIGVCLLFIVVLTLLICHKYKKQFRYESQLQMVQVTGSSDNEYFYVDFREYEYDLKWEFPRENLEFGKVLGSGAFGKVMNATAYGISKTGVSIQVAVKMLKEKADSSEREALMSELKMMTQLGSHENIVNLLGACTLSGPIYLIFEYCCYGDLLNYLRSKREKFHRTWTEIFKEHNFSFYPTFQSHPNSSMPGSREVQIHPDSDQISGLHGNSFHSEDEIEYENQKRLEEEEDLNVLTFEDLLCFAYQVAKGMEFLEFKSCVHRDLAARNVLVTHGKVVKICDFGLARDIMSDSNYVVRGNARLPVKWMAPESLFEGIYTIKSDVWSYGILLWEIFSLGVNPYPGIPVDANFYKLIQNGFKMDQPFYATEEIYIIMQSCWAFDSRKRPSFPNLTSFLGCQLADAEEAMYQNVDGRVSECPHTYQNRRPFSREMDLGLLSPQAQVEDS
SAK, sequence (O00444 whole entry): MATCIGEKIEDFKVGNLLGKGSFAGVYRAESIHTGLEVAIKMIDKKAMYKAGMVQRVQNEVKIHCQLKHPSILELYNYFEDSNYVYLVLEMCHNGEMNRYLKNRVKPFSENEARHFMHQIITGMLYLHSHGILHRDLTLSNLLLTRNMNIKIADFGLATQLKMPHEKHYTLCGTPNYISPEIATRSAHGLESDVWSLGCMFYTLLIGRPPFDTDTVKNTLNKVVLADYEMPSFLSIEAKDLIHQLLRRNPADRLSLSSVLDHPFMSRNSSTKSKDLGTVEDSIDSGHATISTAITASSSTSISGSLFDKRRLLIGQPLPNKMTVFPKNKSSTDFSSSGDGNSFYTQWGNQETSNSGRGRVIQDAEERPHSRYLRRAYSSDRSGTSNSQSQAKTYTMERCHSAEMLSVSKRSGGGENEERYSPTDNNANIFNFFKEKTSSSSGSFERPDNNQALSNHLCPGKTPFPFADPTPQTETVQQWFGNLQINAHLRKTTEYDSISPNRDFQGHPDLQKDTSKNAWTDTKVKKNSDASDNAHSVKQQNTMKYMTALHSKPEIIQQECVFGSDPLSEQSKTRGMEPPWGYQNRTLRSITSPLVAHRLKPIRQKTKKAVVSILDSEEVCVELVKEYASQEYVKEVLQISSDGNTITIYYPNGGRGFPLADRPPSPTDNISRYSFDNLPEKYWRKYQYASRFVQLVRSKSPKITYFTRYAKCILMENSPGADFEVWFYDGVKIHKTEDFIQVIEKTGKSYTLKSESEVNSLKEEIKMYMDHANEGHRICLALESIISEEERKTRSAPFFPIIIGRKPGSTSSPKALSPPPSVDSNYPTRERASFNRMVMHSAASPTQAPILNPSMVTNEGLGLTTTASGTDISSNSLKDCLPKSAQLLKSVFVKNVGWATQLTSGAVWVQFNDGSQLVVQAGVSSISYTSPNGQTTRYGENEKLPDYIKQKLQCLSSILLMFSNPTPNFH
Aurora-B, sequence (Q96GD4 whole entry): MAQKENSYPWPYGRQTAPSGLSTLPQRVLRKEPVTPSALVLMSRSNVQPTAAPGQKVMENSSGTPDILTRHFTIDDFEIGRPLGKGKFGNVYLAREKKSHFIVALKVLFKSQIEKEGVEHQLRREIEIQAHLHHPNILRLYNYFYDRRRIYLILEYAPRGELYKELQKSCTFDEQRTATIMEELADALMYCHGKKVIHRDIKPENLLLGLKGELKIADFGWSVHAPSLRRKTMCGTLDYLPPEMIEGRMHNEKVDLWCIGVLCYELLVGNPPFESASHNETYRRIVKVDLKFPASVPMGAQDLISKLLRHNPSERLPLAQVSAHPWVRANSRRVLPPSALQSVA

Row | IC50 (PDGFRβ) [µM] | Compound | IC50 (Aurora-B) [µM] | IC50 (B-RAF-VE) [µM] | IC50 (CK2a1) [µM] | IC50 (COT) [µM] | IC50 (ERBB2) [µM] | IC50 (FLT3) [µM] | IC50 (MET) [µM] | IC50 (PLK1) [µM] | IC50 (SAK) [µM] | IC50 (VEGF-R3) [µM] | cytotoxic effect on the other cells tested [1] | other results
1 | – | 3-(indole-3-yl)-4-(3,4,5-trimethoxyphenyl)-1H-pyrrole-2,5-dione [Compound 1, reference compound] | 66 | > 100 | > 100 | 32 | 51 | 61 | 60 | > 100 | 10 | 0.037 | – | IC50 (CDK2/CycA): 66 µM; IC50 (CDK4/CycD1): 56 µM
2 | 0.5 | COc1cc(-c2nc(-c3c[nH]c4ccccc34)c[nH]c2=O)cc(OC)c1OC [Compound 5, 5-(1H-indole-3-yl)-3-(3,4,5-trimethoxyphenyl)pyrazin-2(1H)-one] | > 100 | > 100 | > 100 | > 100 | > 100 | 36 | > 100 | > 100 | > 100 | 5 | significantly less affected | IC50 (AKT1): > 100 µM; IC50 (ARK5): > 100 µM; IC50 (Aurora-A): > 100 µM; IC50 (EPHB4): > 100 µM; IC50 (FAK): > 100 µM; IC50 (IGF1R): > 100 µM; IC50 (SRC): > 100 µM; IC50 (VEGF-R2): 4 µM; IC50 (µM) VEGF-R3 (VEGF-R3): low µM range; IC50 (INSR): > 100 µM; IC50 (TIE2): > 100 µM; IC50 (EGFR): > 100 µM
3 | 1.5 | COc1ccc(-c2nc(-c3c[nH]c4ccccc34)c[nH]c2=O)cc1OC [Compound 6, 3-(3,4-dimethoxyphenyl)-5-(1H-indol-3-yl)-1H-pyrazin-2-one] | – | – | – | – | – | – | – | – | – | – | – | –
4 | 19 | COc1ccc(-c2nc(-c3c[nH]c4ccccc34)c[nH]c2=O)cc1 [Compound 7, 3-(4-methoxyphenyl)-5-(1H-indol-3-yl)-1H-pyrazin-2-one] | – | – | – | – | – | – | – | – | – | – | – | –
5 | 0.3 | COc1cc(-c2nc(-c3c[nH]c4ccc(O)cc34)c[nH]c2=O)cc(OC)c1OC [Compound 8, 5-(5-hydroxy-1H-indole-3-yl)-3-(3,4,5-trimethoxyphenyl)pyrazin-2(1H)-one] | – | – | – | – | – | – | – | – | – | – | significantly less affected | IC50 (HL-60 cells): 30 µM
6 | – | O=C1NC[C@@H](c2c[nH]c3cc(Br)ccc23)N[C@H]1c1c[nH]c2cc(Br)ccc12 [cis-3,4-dihydro hamacanthin B] | – | – | – | – | – | – | – | – | – | – | – | IC50 [2]: 0.016 µM
